The results in this text go back to US7129198B1, “Use of benzotriazole UV absorbers” (Ciba Specialty Chemicals Corporation, priority 1999, dated 2006).

Assay in all cases: MIC in microtitre plates
Common to all, as to type: cell-based

For assay [1], the system named is Candida albicans ATCC 10259. As to conditions: ATCC10259, 48 hours at 37° C., ≦20% growth. As for the experimental part: (§1) Mycological slant agar for the preculture of moulds. The test substances are predissolved in dimethyl sulfoxide (DMSO) and tested in a dilution series of 1:2. The test organisms are cultured overnight in CASO bouillon and rinsed off with 10 ml of 0.85% sodium chloride solution (+0.1% TritonX-100). The test organisms are adjusted to an organism count of 1–5×10^6 CFU/ml with 0.85% sodium chloride solution. The test substances are prepipetted into microtitre plates in an amount of 8 μl per well. Previously diluted organism suspensions are diluted 1:100 in CASO bouillon and added to the test substances in an amount of 192 μl per well. The test batches are incubated for 48 hours at 37° C. After incubation, the growth is determined by reference to the turbidity of the test batches (optical density) at 620 nm in a microplate reader. The minimum inhibitory concentration (MIC value) is the concentration of substance at which (compared with the growth of the control) an appreciable inhibition of the growth (≦20% growth) of the test organisms is ascertained. One microtitre plate is used for each test organism and substance concentration. All substances are tested in duplicate.

The subject of assay [2] is Corynebacterium xerosis ATCC 373. As to conditions: ATCC373, 48 hours at 37° C., ≦20% growth. The method, then: as §1
The test system of assay [3] is Enterococcus hirae ATCC 10541. The conditions noted are these: ATCC10541, 48 hours at 37° C., ≦20% growth. As for the experimental part: as §1
The subject of assay [4] is Epidermophyton floccosum DSM 10709. The conditions noted are these: DSM10709, 48 hours at 37° C., ≦20% growth. The method, then:
as §1

In assay [5] the test system is Klebsiella pneumoniae ATCC 4352. The conditions noted are these: ATCC4352, 48 hours at 37° C., ≦20% growth. The method, then: as §1
Assay [6] has as its system Micrococcus luteus ATCC 9341. The conditions noted are these: ATCC9341, 48 hours at 37° C., ≦20% growth. As for the experimental part:
as §1

Assay [7] has as its system P. ovale ATCC 14521. The conditions noted are these: Pityrosporum ovale, ATCC14521, 48 hours at 37° C., ≦20% growth. The method, then: as §1
The subject of assay [8] is S. epidermidis ATCC 12228. As to conditions: Staphylococcus epidermidis, ATCC12228, 48 hours at 37° C., ≦20% growth. As for the experimental part: as §1
Assay [9] relates to Salmonella choleraesuis ATCC 9184. The conditions noted are these: Salmonella enterica, 48 hours at 37° C., ≦20% growth. As for the experimental part: as §1
In assay [10] the test system is Streptococcus mutans ATCC 25175. The conditions noted are these: ATCC25175, 48 hours at 37° C., ≦20% growth. As for the experimental part: as §1
Assay [11] has as its system Trichoderma longibrachiatum DSM 768. The conditions noted are these: DSM768, 48 hours at 37° C., ≦20% growth. As for the experimental part:
as §1

For assay [12], the system named is Trichophyton mentagrophytes ATCC 9533. The conditions noted are these: ATCC9533, 48 hours at 37° C., ≦20% growth. As for the experimental part: as §1
In assay [13] the test system is Trichophyton rubrum DSM 4167. As to conditions: DSM4167, 48 hours at 37° C., ≦20% growth. The method, then:
as §1

Consider `CCCCCCCC[N+](CC)(CC)CCCNC(=O)CCc1cc(-n2nc3ccccc3n2)c(O)c(C(C)(C)C)c1.[Br-]` [compound of formula (108)], for which the minimum inhibitory concentration (MIC) in assay [1] is 6.25 µg/mL; in assay [2] it was 3.12 µg/mL; in assay [3], 3.12 µg/mL; in assay [4] it was 12.5 µg/mL; in assay [5] it was over 100 µg/mL; in assay [6], 3.12 µg/mL. Also, the MIC was over 25 µg/mL in [7]; 3.12 µg/mL in assay [8]; over 100 µg/mL in assay [9]; 3.12 µg/mL in assay [10]; 50 µg/mL in [11]; 100 µg/mL in [12]. This compound displayed an MIC in assay [13] of 25 µg/mL.
